Test results published in patent US9464064B2, “HCV helicase inhibitors and methods of use thereof” (University of Kansas, priority 2011, dated 2016).

Biological target: T1, HCV NS3 helicase NS3h_1b(con1) (Hepatitis C virus genotype 1b, UniProt Q9WMX2)
T1 construct: truncated C-terminally His-tagged NS3 proteins lacking the N-terminal protease, called NS3h; His-tag (C); made in house
Assay: MBHA screen of NCI mechanistic set library at 20 μM (percent inhibition, compound interference)
Type: biochemical
Conditions: compounds at 20 μM; for Inh. (%) (Inhibition): calculated from Equation 1
Procedure: All molecular beacon-based helicase assays (MBHAs) were performed according to known methods (Belon & Frick (2008) supra; Belon & Frick (2009) supra). […] In each flat, black 384-well plate, 56 compounds were tested, in triplicate, along with three negative controls (DMSO only), three positive controls (500 nM dT20), and two wells with no enzyme. Fluorescence was read before ATP (F0) addition and 30 minutes after ATP was added to 1 mM (F30) using a Tecan Infinite M200 fluorescence microplate reader with excitation and emission wavelengths set to 643 and 670 nm, respectively. Percent inhibition was calculated with equation 1, and compound interference in the MBHA was calculated with equation 2.
In Equations 1 and 2, Fc0 is the fluorescence of the reactions containing the test compound before adding ATP, Fc30 is the fluorescence of the test compound reaction 30 minutes after adding ATP. F(−)0 is the average of three DMSO-only negative control reactions before adding ATP and F(−)30 is the average of three DMSO-only reactions 30 minutes after adding ATP.
To identify HCV helicase inhibitors, the MBHA was first used to screen the National Cancer Institute Developmental Therapeutics Program's mechanistic set library. In total, 827 compounds (at 20 μM) were screened using a MBHA with a DNA substrate (Table 1). Compounds were ranked by their ability to inhibit HCV helicase-catalyzed DNA unwinding as calculated from Equation 1.
Compound interference in the MBHA was evaluated by comparing the fluorescence of reactions containing each compound to the fluorescence of DMSO-only negative controls before ATP was added.

[1] = MBHA with DNA substrate, assay interference calculated with Equation 2
[2] = assay interference calculated with Equation 2 (fluorescence vs DMSO-only controls before ATP)

T1 sequence (Q9WMX2 1192-1657): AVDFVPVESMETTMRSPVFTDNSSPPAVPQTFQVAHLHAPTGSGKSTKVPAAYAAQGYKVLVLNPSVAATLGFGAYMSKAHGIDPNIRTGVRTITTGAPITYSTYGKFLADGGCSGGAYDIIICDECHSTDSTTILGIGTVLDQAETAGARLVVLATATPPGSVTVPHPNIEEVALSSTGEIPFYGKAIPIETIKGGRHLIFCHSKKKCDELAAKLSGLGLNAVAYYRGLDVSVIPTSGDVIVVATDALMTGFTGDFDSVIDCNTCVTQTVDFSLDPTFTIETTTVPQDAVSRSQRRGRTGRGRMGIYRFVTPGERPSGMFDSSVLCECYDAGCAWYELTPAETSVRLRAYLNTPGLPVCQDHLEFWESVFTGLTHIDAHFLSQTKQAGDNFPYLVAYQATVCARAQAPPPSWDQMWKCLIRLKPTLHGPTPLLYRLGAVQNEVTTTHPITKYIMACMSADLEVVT

| SMILES | Int.* (Ratio) (Interference) [1] | Inh. (%) (Inhibition) (MBHA with DNA substrate) | Inh. (%) (Inhibition) (MBHA with a DNA substrate) | Int.* (Ratio) (Interference) [2] |
| --- | --- | --- | --- | --- |
| Cc1nc(C(N)=S)sc1C(=O)CC(=O)C(=O)Nc1c(C(C)C)cccc1C(C)C [Compound 642048] | 0.99 | −11.3 |  |  |
| COc1ccc2c(NCCCCCCNc3c4ccccc4nc4cc(OC)ccc34)c3ccccc3nc2c1 [Compound 260610] |  |  | 10.7 | 0.27 |
| CN1CCN(CCSC2Cc3cc(Cl)ccc3Sc3ccccc32)CC1 (stereo not shown) [Compound 635366] | 1.05 | 25.5 |  |  |
| N#CC(C#N)=Cc1cccc(Oc2ccccc2)c1 [Compound 643031] | 1.08 | −0.1 |  |  |
| O=C(O)c1ccccc1-c1ccccc1C(=O)Nc1ccc2c(c1)Cc1ccccc1-2 [Compound 67690] | 1.16 | −9.5 |  |  |
| CC1=CC(O)C(O)C2(C)C1CC1OC(=O)C(O)C3C(C)C(O)C4(O)OCC13C42 (stereo not shown) [Compound 14974] | 0.99 | 20.9 |  |  |
| CN(C)c1ccc(/C=C2\Cc3ccccc3C2=O)cc1Br [Compound 643163] | 1.09 | −12.3 |  |  |
| COc1ccc2cc1Oc1ccc(cc1)CC1c3cc(c(OC)cc3CCN1C)Oc1c(OC)c(OC)cc3c1C(C2)N(C)CC3 (stereo not shown) [Compound 97338] | 0.96 | −9.0 |  |  |
| Br.CCN(CC)CC(C)(C)C(=O)/C=C/c1ccc(C)cc1 [Compound 382766] | 0.90 | 19.2 |  |  |
| Cc1cccc(C)c1NC(=O)C(=O)C(c1ccccc1Cl)S(=O)(=O)Cc1ccccc1Cl (stereo not shown) [Compound 657722] |  |  | 9.1 | 0.93 |
| NC(=O)c1cn(C2OC(CO)C(O)C2O)c2ncnc(N)c12 (stereo not shown) [Compound 65346] | 0.92 | 0.0 |  |  |
| COc1ccc2cc(CN3CCC(C4CCN(Cc5ccc6cc(OC)ccc6c5)CC4)CC3)ccc2c1.Cl [Compound 683792] | 0.93 | −8.0 |  |  |
| Cc1c(Cl)cccc1NC(=O)CC1Sc2ccccc2NC1=O (stereo not shown) [Compound 634396] | 0.99 | −17.6 |  |  |
| Cc1c2ccnc(C(N)=O)c2c(C)c2c1[nH]c1ccccc12.Cl [Compound 335142] | 0.95 | −1.5 |  |  |
| COC1CC(OC2CCC3(C=O)C4CCC5(C)C(C6=CC(=O)OC6)CCC5(O)C4CCC3(O)C2)OC(C)C1OC1OC(COC2OC(CO)C(O)C(O)C2O)C(O)C(O)C1O (stereo not shown) [Compound 7530] |  |  | −19.7 | 0.98 |
| CN1CCN(CCNc2ccc(CO)c3sc4ccccc4c(=O)c23)CC1 [Compound 166381] |  |  | 7.6 | 0.82 |
| Fc1cccc(F)c1C1SCc2nc3ccccc3n21 (stereo not shown) [Compound 625487] | 1.01 | −0.1 |  |  |
| Cc1nn(-c2ccccc2)c2c1CC(=O)Nc1ccccc1-2 [Compound 662553] |  |  | −4.6 | 1.02 |
| C[C@H]1CCC/C=C/[C@@H]2C[C@H](O)C[C@H]2[C@H](O)/C=C/C(=O)O1 [Compound 89671] |  |  | −5.9 | 1.04 |
| Cc1ccc(CC2(OCCN(C)C)CCC(C(C)(C)C)CC2)cc1.O=C(O)/C=C/C(=O)O (stereo not shown) [Compound 670225] | 1.04 | −16.0 |  |  |
| CCCCS(=N)(=O)CCC(N)C(=O)O (stereo not shown) [Compound 326231] | 0.94 | 28.0 |  |  |
| N[C@@H](CN(O)N=O)C(=O)O [Compound 529469] | 0.89 | 18.9 |  |  |
| CCc1cccc(C(C)C)c1NC(=O)/C(=N\NC(N)=O)C(C(=O)OC)c1cnc2ccccc2n1 (stereo not shown) [Compound 642033] | 0.99 | 1.4 |  |  |
| O=C1C=Cc2ncccc2C1=O [Compound 400944] |  |  | −6.2 | 0.84 |
| CCCC[S+]([O-])CC(CO)NC(=O)/C=C\c1c(C)[nH]c(=O)[nH]c1=O (stereo not shown) [Compound 241509] | 1.01 | −2.4 |  |  |

| SMILES | Int.* (Ratio) (Interference) [1] | Inh. (%) (Inhibition) (MBHA with DNA substrate) | Inh. (%) (Inhibition) (MBHA with a DNA substrate) | Int.* (Ratio) (Interference) [2] |
| --- | --- | --- | --- | --- |
| O=C1c2ccccc2C(=O)c2nc(-c3ccccc3)c(-c3ccccc3)nc21 [Compound 629713] |  |  | −20.3 | 0.90 |
| COC(=O)c1ccccc1OCc1cc(=O)oc2ccc(C)cc12 [Compound 623637] |  |  | −3.5 | 0.97 |
| O=C(CC(=O)C(F)(F)F)c1csc2ccccc12 [Compound 80396] | 1.12 | −10.6 |  |  |
| COc1ccc(/C=C/c2cc(O)cc(O[C@@H]3O[C@H](CO)[C@@H](O)[C@H](O)[C@H]3O)c2)cc1O [Compound 43321] |  |  | −28.3 | 1.07 |
| Oc1ccc2ccccc2c1N=Nc1cccc2ccccc12 [Compound 45575] | 0.97 | 18.4 |  |  |
| CC(=O)OCc1cc(=O)n(C)c2c3c4c(cc12)c(C)cc(=O)n4CO3 [Compound 157004] |  |  | 7.1 | 1.11 |
| CCCCCCCCCCSCC(CO)NC(=O)/C=C/c1c(C)[nH]c(=O)[nH]c1=O (stereo not shown) [Compound 265473] |  |  | 11.0 | 0.96 |
| Nc1ccc(N)c2c1C(=O)c1ccccc1C2=O [Compound 7833] | 1.07 | −18.7 |  |  |
| CCCCOCc1cc(CN2CCN(C)CC2)c(O)c2ncccc12 [Compound 20514] |  |  | −19.2 | 1.06 |
| CC[C@@]1(O)C[C@H](O[C@H]2C[C@H](N(C)C)[C@H](O)[C@H](C)O2)c2c(cc3c(c2O)C(=O)c2c(O)ccc(O)c2C3=O)[C@H]1C(=O)OC [Compound 267229] | 0.49 | 31.5 |  |  |
| Cc1nc(-n2nc(-c3ccccc3)cc2-c2ccccc2)sc1C(=O)/C=C/c1ccc(Cl)c(Cl)c1 [Compound 640584] |  |  | 9.6 | 0.90 |
| O=[N+]([O-])c1cc(C(F)(F)F)cc([N+](=O)[O-])c1CCl [Compound 622627] |  |  | −26.2 | 1.09 |
| CCCCCCC1CC(=O)C1(Cl)Cl (stereo not shown) [Compound 666526] | 0.97 | −1.3 |  |  |
| C=C1C(C)C2C(Cc3ccccc3)NC(=O)C23C(OC(C)=O)/C=C/C(C)(O)CC(C)C/C=C/C3C1O (stereo not shown) [Compound 305222] | 1.03 | 12.2 |  |  |
| COc1ccc2[nH]c3c(C)c4ccncc4c(C)c3c2c1 [Compound 69187] | 0.22 | 99.2 |  |  |
| CC[C@H]1CN2CCc3cc(OC)c(OC)cc3[C@@H]2C[C@@H]1C[C@H]1NCCc2cc(O)c(OC)cc21 [Compound 32944] |  |  | −28.9 | 1.02 |
| Cc1cccc(NC(=O)/C=C/c2ccc([N+](=O)[O-])cc2)c1 [Compound 139109] | 1.06 | −1.2 |  |  |
| COc1ccc2c(c1)-c1nn(CCCN(C)C)c3ccc([N+](=O)[O-])c(c13)N2 [Compound 627168] | 0.53 | 64.3 |  |  |
| O=C1c2ccccc2C(=O)c2sc(Nc3ccc(Cl)c(Cl)c3)nc21 [Compound 631521] |  |  | −22.6 | 0.93 |
| COC1=C(N)C(=O)c2nc(C)ccc2C1=O [Compound 132493] |  |  | −22.9 | 1.07 |
| C=C1CC(Cn2cc(Br)c(=O)[nH]c2=O)(c2ccc(-c3ccccc3)cc2)OC1=O (stereo not shown) [Compound 668260] | 0.94 | 0.4 |  |  |
| C=C1C(=O)OCC2C(C(=O)O)=CC3C(C)C(C)=CC123 (stereo not shown) [Compound 145150] | 1.12 | −11.3 |  |  |
| Nc1nc(-c2cccs2)cs1 [Compound 54297] |  |  | −4.0 | 0.96 |
| N[C@@H](Cc1ccc2oc3cc(=O)c4ccccc4c-3nc2c1)C(=O)O [Compound 672425] | 0.89 | −11.4 |  |  |
| Cc1c2ccncc2c(C)c2c1sc1ccccc12 [Compound 119686] |  |  | 8.9 | 1.18 |
